In ChEMBL document CHEMBL1909046, “DrugMatrix in vitro pharmacology data”:

Experiments:
[1] = target: T1, Alpha-1B adrenergic receptor (Rattus norvegicus, UniProt P15823); test: DRUGMATRIX: Alpha-1B adrenergic receptor radioligand binding (ligand: prazosin); type: cell membranes, Wistar, Liver, Membrane; conditions: Not Active = under 50% inhibition at 10 µM
T1 sequence (P15823 whole entry): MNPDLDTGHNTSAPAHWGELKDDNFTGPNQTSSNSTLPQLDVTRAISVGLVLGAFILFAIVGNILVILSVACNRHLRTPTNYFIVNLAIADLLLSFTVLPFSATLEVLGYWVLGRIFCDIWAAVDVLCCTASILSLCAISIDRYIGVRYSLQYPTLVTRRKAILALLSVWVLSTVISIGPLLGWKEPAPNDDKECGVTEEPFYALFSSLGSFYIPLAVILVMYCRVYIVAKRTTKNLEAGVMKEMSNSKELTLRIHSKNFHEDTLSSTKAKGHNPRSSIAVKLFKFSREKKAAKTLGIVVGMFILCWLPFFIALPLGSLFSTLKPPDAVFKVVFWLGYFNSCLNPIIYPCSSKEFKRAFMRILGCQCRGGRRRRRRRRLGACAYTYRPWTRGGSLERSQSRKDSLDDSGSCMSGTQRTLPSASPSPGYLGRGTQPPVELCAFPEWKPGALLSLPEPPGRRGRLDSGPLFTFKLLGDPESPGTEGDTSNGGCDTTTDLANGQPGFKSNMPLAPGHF

[2] = target: Beta-1 adrenergic receptor (Homo sapiens, UniProt P08588); test: DRUGMATRIX: Adrenergic beta1 radioligand binding (ligand: [125I] Cyanopindolol); type: cell membranes, CHO-K1, Membrane; conditions: cho-k1; Not Active = under 50% inhibition at 10 µM
D(3) dopamine receptor = D(3) dopamine receptor (Homo sapiens, UniProt P35462); test: DRUGMATRIX: Dopamine D3 radioligand binding (ligand: [3H] Spiperone); type: cell membranes, CHO, Membrane; conditions: cho
[3] = target: T2, Polyunsaturated fatty acid lipoxygenase ALOX15 (Oryctolagus cuniculus, UniProt P12530); test: biochemical; type: tissue-based, Reticulocytes; conditions: reticulocytes;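 also: inhibition of 15-lipoxygenase enzyme activity measured with linoleic acid as the substrate; in other assays of this panel Not Active means under 50% inhibition at 10 µM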
T2 sequence (P12530 whole entry): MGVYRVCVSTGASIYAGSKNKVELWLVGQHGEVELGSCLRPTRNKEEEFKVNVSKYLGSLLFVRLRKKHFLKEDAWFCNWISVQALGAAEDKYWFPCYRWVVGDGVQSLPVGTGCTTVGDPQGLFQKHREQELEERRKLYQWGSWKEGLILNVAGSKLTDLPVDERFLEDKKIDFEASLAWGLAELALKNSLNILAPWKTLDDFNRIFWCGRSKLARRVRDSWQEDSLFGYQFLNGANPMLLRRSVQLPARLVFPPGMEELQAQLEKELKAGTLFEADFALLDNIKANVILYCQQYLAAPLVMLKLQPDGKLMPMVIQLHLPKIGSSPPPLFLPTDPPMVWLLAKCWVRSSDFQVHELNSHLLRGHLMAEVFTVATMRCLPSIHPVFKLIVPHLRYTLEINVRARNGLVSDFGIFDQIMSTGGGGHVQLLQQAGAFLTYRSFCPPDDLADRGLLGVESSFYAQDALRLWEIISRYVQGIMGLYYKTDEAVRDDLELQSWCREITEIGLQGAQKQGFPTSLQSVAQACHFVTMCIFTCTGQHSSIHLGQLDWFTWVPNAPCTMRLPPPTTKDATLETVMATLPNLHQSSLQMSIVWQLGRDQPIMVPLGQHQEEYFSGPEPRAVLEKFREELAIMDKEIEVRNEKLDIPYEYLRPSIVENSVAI

[4] = target: T3, Muscarinic acetylcholine receptor M5 (Homo sapiens, UniProt P08912); type: cell membranes, Membrane; conditions: cho-k1; also: in other assays of this panel Not Active means under 50% inhibition at 10 µM
T3 sequence (P08912 whole entry): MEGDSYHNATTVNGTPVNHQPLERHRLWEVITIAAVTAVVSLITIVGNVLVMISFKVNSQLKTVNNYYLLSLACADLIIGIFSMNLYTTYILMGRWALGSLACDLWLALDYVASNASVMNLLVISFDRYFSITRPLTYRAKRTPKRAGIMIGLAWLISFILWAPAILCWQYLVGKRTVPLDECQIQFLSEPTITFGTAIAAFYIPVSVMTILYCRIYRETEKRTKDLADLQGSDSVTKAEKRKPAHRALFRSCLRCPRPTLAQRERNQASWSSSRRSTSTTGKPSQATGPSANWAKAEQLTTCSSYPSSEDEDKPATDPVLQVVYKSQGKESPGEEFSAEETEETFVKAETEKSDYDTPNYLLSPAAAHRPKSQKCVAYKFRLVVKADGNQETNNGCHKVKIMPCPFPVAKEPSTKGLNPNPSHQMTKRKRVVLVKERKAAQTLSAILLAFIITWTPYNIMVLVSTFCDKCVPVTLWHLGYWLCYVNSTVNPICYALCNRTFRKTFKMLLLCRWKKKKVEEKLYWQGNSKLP

[5] = target: Matrix metalloproteinase-9 (Homo sapiens, UniProt P14780); test: biochemical; type: cell-based;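 also: inhibition of isolated MMP-9 enzyme activity toward a synthetic peptide substrate, from the DrugMatrix protease screening panel; in other assays of this panel Not Active means under 50% inhibition at 10 µM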

Measured: IC50

Chain of Matrix metalloproteinase-9 (P14780 whole entry): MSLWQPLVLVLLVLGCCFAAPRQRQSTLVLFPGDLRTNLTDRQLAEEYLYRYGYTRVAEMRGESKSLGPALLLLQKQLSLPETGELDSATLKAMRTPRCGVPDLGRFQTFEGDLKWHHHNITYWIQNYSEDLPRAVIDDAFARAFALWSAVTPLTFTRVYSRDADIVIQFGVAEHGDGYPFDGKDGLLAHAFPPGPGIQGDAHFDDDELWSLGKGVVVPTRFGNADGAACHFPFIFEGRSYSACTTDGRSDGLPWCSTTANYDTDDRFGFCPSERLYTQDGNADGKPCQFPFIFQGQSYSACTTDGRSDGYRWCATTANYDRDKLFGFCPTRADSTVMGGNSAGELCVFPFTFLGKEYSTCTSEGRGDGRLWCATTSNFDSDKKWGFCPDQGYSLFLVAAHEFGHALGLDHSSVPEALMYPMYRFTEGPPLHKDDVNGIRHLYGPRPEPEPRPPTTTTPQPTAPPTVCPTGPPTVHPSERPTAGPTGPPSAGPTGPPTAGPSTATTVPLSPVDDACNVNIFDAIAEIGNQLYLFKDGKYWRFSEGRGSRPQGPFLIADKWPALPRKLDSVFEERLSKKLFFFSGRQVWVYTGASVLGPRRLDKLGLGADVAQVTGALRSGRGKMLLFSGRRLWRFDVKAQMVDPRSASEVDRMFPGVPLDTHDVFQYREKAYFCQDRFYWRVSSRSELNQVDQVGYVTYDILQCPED
Chain of D(3) dopamine receptor (P35462 whole entry): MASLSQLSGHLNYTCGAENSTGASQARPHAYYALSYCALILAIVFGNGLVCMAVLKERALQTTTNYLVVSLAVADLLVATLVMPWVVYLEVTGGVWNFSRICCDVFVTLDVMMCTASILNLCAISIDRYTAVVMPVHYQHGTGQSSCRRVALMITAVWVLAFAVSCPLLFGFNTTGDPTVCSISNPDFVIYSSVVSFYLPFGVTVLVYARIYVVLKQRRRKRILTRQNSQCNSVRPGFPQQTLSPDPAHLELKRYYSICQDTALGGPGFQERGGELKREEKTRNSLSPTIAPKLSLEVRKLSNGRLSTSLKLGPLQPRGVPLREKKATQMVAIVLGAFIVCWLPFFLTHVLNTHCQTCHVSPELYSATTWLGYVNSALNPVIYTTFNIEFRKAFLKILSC
Chain of Beta-1 adrenergic receptor (P08588 whole entry): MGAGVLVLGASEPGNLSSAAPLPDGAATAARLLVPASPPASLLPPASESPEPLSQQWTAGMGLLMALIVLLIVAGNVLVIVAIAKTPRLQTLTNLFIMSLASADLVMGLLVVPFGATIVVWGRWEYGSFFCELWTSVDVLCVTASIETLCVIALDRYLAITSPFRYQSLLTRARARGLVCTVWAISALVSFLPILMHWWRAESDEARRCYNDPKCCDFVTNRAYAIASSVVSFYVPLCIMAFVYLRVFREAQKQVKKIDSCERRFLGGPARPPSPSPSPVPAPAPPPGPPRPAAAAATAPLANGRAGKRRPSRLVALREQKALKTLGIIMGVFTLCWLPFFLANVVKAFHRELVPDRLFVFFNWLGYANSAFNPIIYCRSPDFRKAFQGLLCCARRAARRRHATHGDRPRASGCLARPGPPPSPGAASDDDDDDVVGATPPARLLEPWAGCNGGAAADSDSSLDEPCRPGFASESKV

NC[C@@H]1O[C@H](O[C@H]2[C@@H](O)[C@H](O[C@@H]3[C@@H](O)[C@H](N)C[C@H](N)[C@H]3O[C@H]3O[C@H](CN)[C@@H](O)[C@H](O)[C@H]3N)O[C@@H]2CO)[C@H](N)[C@@H](O)[C@@H]1O [FRAMYCETIN]
Not Active: [1] | [2] | D(3) dopamine receptor | [3] | [4] | [5]

C[C@H]([C@](O)(Cn1cncn1)c1ccc(F)cc1F)S(C)(=O)=O [GENACONAZOLE]
Not Active: [1] | [2] | D(3) dopamine receptor | [3] | [4] | [5]

Cc1cnc(C(=O)NCCc2ccc(S(=O)(=O)NC(=O)NC3CCCCC3)cc2)cn1 [GLIPIZIDE]
Not Active: [1] | [2] | D(3) dopamine receptor | [3] | [4] | [5]

Cc1c(F)c(N2CCNC(C)C2)cc2c1c(=O)c(C(=O)O)cn2C1CC1 (configuration not stated) [GREPAFLOXACIN]
Not Active: [1] | [2] | D(3) dopamine receptor | [3] | [4] | [5]

COc1ccccc1OCC(O)CO (configuration not stated) [GUAIFENESIN]
Not Active: [1] | [2] | D(3) dopamine receptor | [3] | [4] | [5]

C[C@]12CCC(=O)C=C1CC[C@@H]1[C@@H]2[C@@H](O)C[C@@]2(C)[C@H]1CC[C@]2(O)C(=O)CO [HYDROCORTISONE]
Not Active: [1] | [2] | D(3) dopamine receptor | [3] | [4] | [5]

C/C=C\c1ccc(O)c(OC)c1 [ISOEUGENOL]
Not Active: [1] | [2] | D(3) dopamine receptor | [3] | [4] | [5]

CC[C@H](C)C(=O)O[C@H]1C[C@@H](C)C=C2C=C[C@H](C)[C@H](CC[C@@H]3C[C@@H](O)CC(=O)O3)[C@H]21 [LOVASTATIN]
Not Active: [1] | [2] | D(3) dopamine receptor | [3] | [4] | [5]

CC(C(=O)O)c1ccc(CC2CCCC2=O)cc1 (configuration not stated) [LOXOPROFEN]
Not Active: [1] | [2] | D(3) dopamine receptor | [3] | [4] | [5]

Cc1cccc(Nc2ccccc2C(=O)O)c1C [MEFENAMIC ACID]
Not Active: [1] | [2] | D(3) dopamine receptor | [3] | [4] | [5]

CC(=O)O[C@]1(C(C)=O)CC[C@H]2[C@@H]3C=C(C)C4=CC(=O)CC[C@]4(C)[C@H]3CC[C@@]21C [MEGESTROL ACETATE]
Not Active: [1] | [2] | D(3) dopamine receptor | [3] | [4] | [5]

COc1ccccc1OCC(O)COC(N)=O (configuration not stated) [METHOCARBAMOL]
Not Active: [1] | [2] | D(3) dopamine receptor | [3] | [4] | [5]

CN(Cc1cnc2nc(N)nc(N)c2n1)c1ccc(C(=O)N[C@@H](CCC(=O)O)C(=O)O)cc1 [METHOTREXATE]
Not Active: [1] | [2] | D(3) dopamine receptor | [3] | [4] | [5]

COC(=O)c1ccccc1O [METHYL SALICYLATE]
Not Active: [1] | [2] | D(3) dopamine receptor | [3] | [4] | [5]

COc1ccc2cc(CCC(C)=O)ccc2c1 [NABUMETONE]
Not Active: [1] | [2] | D(3) dopamine receptor | [3] | [4] | [5]

O=C(O)c1cccnc1 [NIACIN]
Not Active: [1] | [2] | D(3) dopamine receptor | [3] | [4] | [5]

CNC(=C[N+](=O)[O-])NCCSCc1csc(CN(C)C)n1 [NIZATIDINE]
Not Active: [1] | [2] | D(3) dopamine receptor | [3] | [4] | [5]

C[C@]12C/C(=C/O)C(=O)C[C@@H]1CC[C@@H]1[C@@H]2CC[C@@]2(C)[C@H]1CC[C@]2(C)O [OXYMETHOLONE]
Not Active: [1] | [2] | D(3) dopamine receptor | [3] | [4] | [5]

CC(C)(CO)C(O)C(=O)NCCCO (configuration not stated) [PANTHENOL]
Not Active: [1] | [2] | D(3) dopamine receptor | [3] | [4] | [5]

COc1ccc(Cc2nccc3cc(OC)c(OC)cc23)cc1OC [PAPAVERINE]
Not Active: [1] | [2] | D(3) dopamine receptor | [3] | [4] | [5]

OCCN1CCN(CCCN2c3ccccc3Sc3ccc(Cl)cc32)CC1 [PERPHENAZINE]
Not Active: [1] | [2] | D(3) dopamine receptor | [3] | [4] | [5]

CCCCC1C(=O)N(c2ccccc2)N(c2ccccc2)C1=O [PHENYLBUTAZONE]
Not Active: [1] | [2] | D(3) dopamine receptor | [3] | [4] | [5]
